{"source": "patent US10392422B2", "about": "“Macrocyclic broad spectrum antibiotics” (priority 2014, dated 2019)", "test_in_all_cases": "MIC, broth micro-dilution technique (CLSI)", "details_in_all_cases": "Table 1 protocol: serial 2-fold dilutions starting from 64 μg/ml; 35° C., 22 hours", "key": {"[1]": {"test_system": "Escherichia coli MC4100 harboring the IMP4213", "format": "cell-based", "summary_of_the_method": "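CLSI broth microdilution in cation-adjusted Mueller Hinton broth with 0.002% Tween-80. Ten 2-fold dilutions started from 64 μg/ml, or from 4 μg/mL in the modified protocol. Inoculum at final OD600 0.0005; MIC read after 22 h at 35 °C. E. coli strain carries imp4213 (increased outer-membrane permeability).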"}, "[2]": {"test_system": "Methicillin Resistant Staphylococcus aureus strain USA 300 (NRS384)", "format": "cell-based", "summary_of_the_method": "(§1)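 CLSI broth microdilution in cation-adjusted Mueller Hinton broth with 0.002% v/v Tween-80. Compounds were serially 2-fold diluted over 10 concentrations from 64 μg/ml, or from 4 μg/mL in a modified protocol; inoculum at final OD600 0.0005, incubated 35° C for 22 hours.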"}, "MRSA COL (NRS100)": {"test_system": "MRSA COL (NRS100)", "format": "cell-based, Staphylococcus aureus", "summary_of_the_method": "as §1"}}, "data": [{"compound": "CCCCCCCCCCNCCC(=O)N[C@@H](CCCCN)C(=O)N(C)[C@@H]1C(=O)N[C@@H](C)C(=O)N[C@H](C(=O)N[C@@H](C)C(=O)N2CCC[C@H]2C(N)=O)Cc2ccc(O)c(c2)-c2cc1ccc2O.O=CO", "note": "[Compound 155]", "values": [{"measurement": "MIC (μg/mL) E. coli", "setting": "[1]", "value": 64, "unit": "µg/mL"}, {"measurement": "MIC (μg/mL) S. aureus", "setting": "[2]", "value": 2.8, "unit": "µg/mL"}, {"measurement": "MIC (μg/mL) (COL)", "setting": "MRSA COL (NRS100)", "value": 1.3, "unit": "µg/mL"}]}]}
